What was measured:
IL-6 = IL-6 mRNA level (qPCR) in cytokine-stimulated Caco-2 cells; assay type: cell-based, human; conditions: 5–80 μM, 6 h cytokine stimulation, maximum effect
Experimental: (§1) Confluent Caco-2 cells were stimulated with a cocktail of cytokines comprised of tumour necrosis factor-α (TNF-α, 20 ng mL^−1), interleukin-1β (IL-1β, 40 ng mL^−1), interferon-γ (IFN-γ, 10 ng mL^−1) and lipopolysaccharide (LPS, 100 ng mL^−1) in the presence or absence of BET, VUL and IND treatments (5–80 µM) for 6 h. With the completion of incubations, cells were washed with cold DPBS and lysed with TRIsure reagent (Scientific Laboratory Supplies Ltd.). Total RNA of cell samples was extracted in accordance with the manufacturer’s instructions. After resuspending the RNA pellets in DEPC water, concentration and quality were determined using the NanoQuant plate (Tecan Spark 10M plate reader) at 260 and 280 nm. Reverse transcription of RNA was achieved using the iScript™ cDNA Synthesis Kit (Bio-Rad). Transcription levels of target genes—interleukin 6 (IL-6), IL-8, COX-2, iNOS, NADPH oxidase 1 (NOX-1), NAD(P)H quinone dehydrogenase 1 (NQO-1), heme oxygenase 1 (HO-1), glutamate-cysteine ligase catalytic subunit (GCLC), glutathione peroxidase 1 (GPX-1), glutathione S-transferase 1 (GSTA-1) and GSTP-1 were evaluated using SybrGreen based reagent (SensiFast SYBR Green, SLS Ltd., Galveston, TX, USA) via real-time qPCR using StepOne Plus Real-Time PCR System (Applied Biosystems, Nottingham, UK). Primers of target genes were designed and blasted using the NCBI database, whose PCR product sizes were confirmed by 2% agarose gel electrophoresis. The list of primer sequences used in the study is presented in Supplemental Table S1. The calculation of target gene levels was based upon the Livak (2^−ΔΔCT) method with normalisation to the housekeeping gene, β-actin [31].

NQO-1 [1] = experiment: NQO-1 mRNA level (qPCR) in cytokine-stimulated Caco-2 cells; assay type: cell-based, human; conditions: 5–80 μM, 6 h cytokine stimulation, vs SC
Experimental: as §1, with “Primers of target genes were designed and blasted using the NCBI database, whose PCR product sizes were confirmed by 2% agarose gel electrophoresis. The list of primer sequences used in the study is presented in Supplemental Table S1. The calculation of target gene levels was based upon the Livak (2^−ΔΔCT) method with normalisation to the housekeeping gene, β-actin [31].” left out

HO-1 = HO-1 mRNA level (qPCR) in cytokine-stimulated Caco-2 cells; assay type: cell-based, human; conditions: 5–80 μM, 6 h cytokine stimulation, vs SC
Experimental: as §1, with “Primers of target genes were designed and blasted using the NCBI database, whose PCR product sizes were confirmed by 2% agarose gel electrophoresis. The list of primer sequences used in the study is presented in Supplemental Table S1. The calculation of target gene levels was based upon the Livak (2^−ΔΔCT) method with normalisation to the housekeeping gene, β-actin [31].” left out

GSTA-1 = GSTA-1 mRNA level (qPCR) in cytokine-stimulated Caco-2 cells; assay type: cell-based, human; conditions: 5–80 μM, 6 h cytokine stimulation, vs SC
Experimental: as §1, with “Primers of target genes were designed and blasted using the NCBI database, whose PCR product sizes were confirmed by 2% agarose gel electrophoresis. The list of primer sequences used in the study is presented in Supplemental Table S1. The calculation of target gene levels was based upon the Livak (2^−ΔΔCT) method with normalisation to the housekeeping gene, β-actin [31].” left out

GSTP-1 = GSTP-1 mRNA level (qPCR) in cytokine-stimulated Caco-2 cells; assay type: cell-based, human; conditions: 5–80 μM, 6 h cytokine stimulation, vs SC
Experimental: as §1, with “Primers of target genes were designed and blasted using the NCBI database, whose PCR product sizes were confirmed by 2% agarose gel electrophoresis. The list of primer sequences used in the study is presented in Supplemental Table S1. The calculation of target gene levels was based upon the Livak (2^−ΔΔCT) method with normalisation to the housekeeping gene, β-actin [31].” left out

Caco-2 cells = experiment: Intracellular ROS formation (DCFH2-DA) in H2O2-stressed Caco-2 cells; assay type: cell-based, human; conditions: 200 μM H2O2
Experimental: The generation of reactive oxygen species (ROS) within Caco-2 cells was determined in 96-well plates with the probe 2′,7′-dichlorodihydrofluorescein diacetate (DCFH2-DA), which is intracellularly deacetylated and oxidised to highly fluorescent 2′,7′-dichlorofluorescein (DCF). DCFH2-DA (30 µM) dissolved in PBS with 1% FBS (v/v) was applied to the confluent Caco-2 cells and incubated for 40 min at 37 °C. After washing, cells were treated with BET, VUL and IND (5–80 μM) for 1 h and subsequently stressed with H2O2 (200 μM) for a further 1 h. The plate was scanned using Tecan Spark 10M^TM with excitation λ of 485 nm and emission λ of 535 nm. Subsequently, the protein content of each well was determined by SRB assay. Briefly, the medium was removed and the cells were washed with PBS and submerged with 50 μL of 0.004% SRB solution (w/v) in 10% trichloroacetic acid (w/v). Cells were incubated at room temperature for 15 min and washed with 1% acetic acid (200 μL, v/v). After treating with Tris base (10 mM, 100 μL), cells were incubated for 5 min under shaking conditions. Finally, the plate was scanned using a Tecan plate reader with excitation λ of 540 nm and emission λ of 590 nm. Results of the ROS assay were normalised to the relative protein content for each well and expressed as the relative fluorescence intensity % (RFI) with respect to the value of positive control.

[2] = EPR spin-trapping superoxide radical scavenging assay; conditions: 20, 50 μM betalain
Experimental: (§2) Electron paramagnetic resonance (EPR) with spin trapping was used to determine superoxide and DPPH radical scavenging abilities of betalains reflected by the reduction of relative signal strength. EPR spectra were recorded 1 min after reagent mixing on a JEOL X320 spectrometer (X-band) in glass capillaries (0.8 mm ID). Superoxide assay was carried out by mixing the following solutions in 30% aqueous ethanol as solvent: hypoxanthine (1 mM, 55 μL), 5,5-dimethyl-1-pyrroline-N-oxide (DMPO) (1 M, 15 μL) and deferoxamine (10 mM, 10 μL). Individual betalains (200 and 500 μM) or solvent control were subsequently added in a volume of 10 μL. The reaction was initiated by the addition of 2 U mL^−1 xanthine oxidase (10 μL), achieving 20 and 50 μM as final concentrations of betalains in the mixture.
(§3) The 2,2-diphenyl-1-(2,4,6-trinitrophenyl)hydrazyl (DPPH) assay was conducted by mixing ethanol (40 μL) with 30% aqueous ethanol solutions of DPPH (100 μM, 50 μL) and purified betalains (200 μM, 10 μL), providing the working concentration of betalains as 20 μM. In both assays, acquisition of EPR spectra was started 1 min after reagent mixing. To improve the accuracy of measurements, the signal intensity for the superoxide assay was determined in triplicate by fitting the experimental spectra to the simulated superoxide-DMPO adduct spectra.

[3] = EPR DPPH radical scavenging assay; conditions: 20 μM betalain
Experimental: as §2, §3

NQO-1 [4] = test system: NQO-1; parameters: method as in PMID 23769299; conditions: 20 μM, human hepatocytes; cited from earlier work
GSTM = test system: GSTM; parameters: method as in PMID 23769299; conditions: 20 μM, human hepatocytes; cited from earlier work
COX-2 [5] = test system: COX-2; parameters: method as in PMID 24306215; conditions: rat model of carrageenan-induced pleurisy; cited from earlier work
iNOS [6] = test system: iNOS; parameters: method as in PMID 24306215; conditions: rat model of carrageenan-induced pleurisy; cited from earlier work
COX-2 [7] = test system: COX-2; parameters: method as in PMID 23931157; conditions: 25 μM; cited from earlier work
iNOS [8] = test system: iNOS; parameters: method as in PMID 23931157; conditions: 25 μM; cited from earlier work
NOX-1 = test system: NOX-1; parameters: method as in PMID 23931157; conditions: 25 μM; cited from earlier work
[9] = parameters: method as in PMID 15447903, PMID 24306215, PMID 28358315; conditions: in vivo; cited from earlier work

SMILES | Downregulation of IL-6 expression vs cytokine control (SC) (IL-6) | Upregulation of NQO-1 expression (NQO-1 [1]) [%] | Upregulation of HO-1 expression (HO-1) [%] | Induction of GSTA-1 expression (GSTA-1) [%] | Upregulation of GSTP-1 expression (GSTP-1) [%] | Suppression of H2O2-stimulated ROS (Caco-2 cells; throughout concentration range 5–80 μM) [%] | Decrease in EPR signal intensity, superoxide assay [2] [%] | Decrease in EPR signal intensity, DPPH assay [3] [%] | Increase of NQO-1 expression in the baseline (NQO-1 [4]) | Increase of GSTM expression in the baseline (GSTM) [%] | Reduction of H2O2-stimulated ROS (Caco-2 cells; at 80 μM) [%] | Antiradical activity in superoxide assay (EPR) [2] | Antiradical activity in DPPH assay (EPR) [3] | Suppression of COX-2 (COX-2 [5]) [%] | Suppression of iNOS (iNOS [6]) [%] | Suppression of COX-2 protein levels (COX-2 [7]) [%] | Suppression of iNOS protein levels (iNOS [8]) [%] | Suppression of NOX-1 protein levels (NOX-1) [%] | Plasma concentration of IND compared with BET [9] | Urinary recovery of IND compared with BET [9]
O=C(O)C1=C/C(=C/C=[N+]2/c3cc(O)c(O[C@@H]4O[C@H](CO)[C@@H](O)[C@H](O)[C@H]4O)cc3C[C@H]2C(=O)[O-])C[C@@H](C(=O)O)N1 [BET, betanin] | up to 50% | < 24 | < 24 | < 51 | < 24 | < 64 | < 35 | < 71 | ca. 60% | ~100 | – | – | – | – | – | – | – | – | – | –
O=C(O)C1=C/C(=C/C=[N+]2/CCC[C@H]2C(=O)[O-])C[C@@H](C(=O)O)N1 [IND, indicaxanthin] | up to 50% | – | – | < 50 | – | – | – | – | – | – | 14 | did not exhibit any evident antiradical activity | did not exhibit any evident antiradical activity | 88 | 75 | 80 | 90 | 89 | around 20 fold | around 20 fold

Source: publication PMC9405451, “Uptake and Immunomodulatory Properties of Betanin, Vulgaxanthin I and Indicaxanthin towards Caco-2 Intestinal Cells” (Antioxidants, 2022)
